Patent US5047419A, “Photodynamic therapy of glioma or mammary carcinoma using seleno- or telluropyrylium salts” (Eastman Kodak Company, priority 1988, dated 1991)

What was measured:
[1] = Absorption maxima (λmax) of chalcogenopyrylium dyes; format: physicochemical
Description: (§1) The ability of the dyes of this invention to function as a cancer-treating agent is in part a reflection of the ability of the dye to generate singlet oxygen in air-saturated solution. (As used herein, "air-saturated solution" means a solution of dye exposed to the atmosphere.) In studying a variety of chalcogenopyrylium dyes, only those dyes containing a selenium or tellurium atom show any appreciable generation of singlet oxygen upon irradiation. Fortuitously, selenopyrylium and telluropyrylium dyes have absorption maxima that are shifted to the red relative to their pyrylium and thiopyrylium analogues. That is, not only are these dyes effective in killing cancer cells because of their high quantum efficiency, but also they generally operate at the most preferred wavelengths, namely those of 700 nm or longer. Table III contains examples of chalcogenopyrylium dyes, their quantum efficiencies for singlet oxygen generation, and their absorption maxima. (In this Table, Ph=Phenyl, Me=Methyl, and t-Bu=tertiary butyl.)

[2] = Quantum efficiency of singlet oxygen generation in air-saturated solution; format: physicochemical
Description: as §1

RT-1 glioma cells = test: Survival study of rats implanted with RT-1 glioma cells; format: in vivo, rat; details: for Mean Survival Time: 2.5 μmol femoral artery
Experimental: A survival study was conducted using Dye 1 with 400 g rats implanted with RT-1 glioma cells at day 0 and treated with 2.5 μmol of dye delivered by femoral artery injection on day 12. The treated animals were irradiated one hour post injection using a quartz fiber optic with a diffusion tip with the dye laser described earlier as the light source. Total irradiation energy was 50 J cm^-2 at 785 nm. Three control groups were used: untreated animals, animals treated with dye only, and animals treated with light only. [The number of rats per group were: 10 for laser and dye treatment, 6 for control (no treatment), 14 for dye only and 6 for laser only.] Mean survival time data are compiled in Table VIII.

[3] = Distribution of Dye 1 in organ tissues of glioma (RT-1) bearing rats; format: in vivo, rat
Experimental: Dye 1 of Table 1 was delivered to glioma sites in rat brains, such sites having been achieved by implanting RT-1 rat glioma cancer cells into the brains of twenty-four 400 g rats. Stock solutions of Dye 1 at 1 mM concentration were prepared by dissolving the dye in a minimal amount of 95% ethanol and diluting with phosphate buffered saline to 1 mM. RT-1 glioma cells were injected into the cortex of the rats at day 0. Treatment with the dye was done at day 12. A quantity of the stock solution sufficient to deliver 1.5 mg (2.5 μmol) of Dye 1 per rat (approximately2 mL) was delivered by femoral artery or carotid artery injection. The animals were sacrificed at the indicated times, the indicated tissues were removed, and frozen until the amount of dye was quantified. The dye content of the indicated tissues was examined spectroscopically by homogenizing the tissues, doing a lipid extraction of the homogenate, and measuring the optical density of the extract at a constant volume at the wavelength of the dye. Alternatively, a tritium labeled sample of Dye 1 was employed in the injection and the tissue homogenate was placed directly in a scintillation vial. The dye content was then measured by tritium count. […] (The values listed at times of 0.25 and 1.0 h after injection are comparative examples only, since there is either too high a concentration present in the brain, or too little in the tumor.)

[4] = Distribution of Dye 5 in organ tissues of rats bearing an implanted mammarian tumor; format: in vivo, rat; details: peritoneum, prep L, optical density
[5] = carotid artery, 0.33 h, prep H, tritium counts
[6] = femoral artery, 0.25 h, prep D, tritium counts
[7] = femoral artery, 0.50 h, prep D, tritium counts
[8] = femoral artery, 1.0 h, prep (L), optical density (B)
[9] = femoral artery, 1.0 h, prep D, tritium counts

SMILES: CC(C)(C)C1=CC(=CC=Cc2cc(C(C)(C)C)[s+]c(C(C)(C)C)c2)C=C(C(C)(C)C)S1.F[P-](F)(F)(F)(F)F [C.E. 1, 2,6-Di-t-butyl-4-[3-(2,6-di-t-butyl-4H-thiopyran-4-ylidene)-1-propen-1-yl]thiopyrylium hexafluorophosphate, reference compound]
- Absorption maximum λmax ([1]; H2O): 660 nm
- Quantum efficiency of singlet oxygen generation Φ(1O2) ([2]; air-saturated solution): ≤ 0.001

SMILES: CC(C)(C)C1=CC(=CC=Cc2cc(C(C)(C)C)[o+]c(C(C)(C)C)c2)C=C(C(C)(C)C)S1.F[P-](F)(F)(F)(F)F [C.E. 2, 2,6-Di-t-butyl-4-[3-(2,6-di-t-butyl-4H-thiopyran-4-ylidene)-1-propen-1-yl]pyrylium hexafluorophosphate, reference compound]
- Absorption maximum λmax ([1]; H2O): 630 nm
- Quantum efficiency of singlet oxygen generation Φ(1O2) ([2]; air-saturated solution): ≤ 0.001

SMILES: CC(C)(C)C1=CC(=CC=Cc2cc(C(C)(C)C)[se+]c(C(C)(C)C)c2)C=C(C(C)(C)C)[Te]1.[Cl-] [Dye 1, 2,6-Di-t-butyl-4-[3-(2,6-di-t-butyl-4H-telluropyran-4-ylidene)-1-propen-1-yl]selenopyrylium chloride]
- survival relative to animals in the control groups (RT-1 glioma cells; Dye 1 and light): prolonged survival
- Proportion of Animals Surviving (RT-1 glioma cells; Dye Only, day ≥15): 0.50
- Proportion of Animals Surviving (RT-1 glioma cells; Dye Only, day ≥19): 0.43
- Proportion of Animals Surviving (RT-1 glioma cells; Dye Only, day ≥22): 0.43
- Proportion of Animals Surviving (RT-1 glioma cells; Dye Only, day ≥26): 0.43
- Proportion of Animals Surviving (RT-1 glioma cells; Dye Only, day ≥33): 0.43
- Proportion of Animals Surviving (RT-1 glioma cells; Dye Only, day ≥40): 0.43
- Proportion of Animals Surviving (RT-1 glioma cells; Dye Only, day ≥47): 0.00
- Mean Survival Time (RT-1 glioma cells; Dye Only): 27.9 days
- Proportion of Animals Surviving (RT-1 glioma cells; Laser + Dye, day ≥15): 0.70
- Proportion of Animals Surviving (RT-1 glioma cells; Laser + Dye, day ≥19): 0.70
- Proportion of Animals Surviving (RT-1 glioma cells; Laser + Dye, day ≥22): 0.70
- Proportion of Animals Surviving (RT-1 glioma cells; Laser + Dye, day ≥26): 0.60
- Proportion of Animals Surviving (RT-1 glioma cells; Laser + Dye, day ≥33): 0.50
- Proportion of Animals Surviving (RT-1 glioma cells; Laser + Dye, day ≥40): 0.50
- Proportion of Animals Surviving (RT-1 glioma cells; Laser + Dye, day ≥47): 0.30
- Mean Survival Time (RT-1 glioma cells; Laser + Dye, 50 J cm^-2 at 785 nm): 32.8 days
- animals still alive (RT-1 glioma cells; fully treated (laser + dye), from day 47 on): 30%
- nmol Dye 1/g of tissue, Brain [3, 5]: 0.9 nmol Dye 1/g of tissue
- nmol Dye 1/g of tissue, Tumor [3, 5]: 16.0 nmol Dye 1/g of tissue
- nmol Dye 1/g of tissue, Liver ([3]; femoral artery, 0.25 h, prep (H), tritium counts): 5.4 nmol Dye 1/g of tissue
- nmol Dye 1/g of tissue, Brain [3, 6]: 46 nmol Dye 1/g of tissue
- nmol Dye 1/g of tissue, Heart [3, 6]: 7.4 nmol Dye 1/g of tissue
- nmol Dye 1/g of tissue, Liver [3, 6]: 9.1 nmol Dye 1/g of tissue
- nmol Dye 1/g of tissue, Tumor [3, 6]: 45 nmol Dye 1/g of tissue
- nmol Dye 1/g of tissue, Brain [3, 7]: 18.0 nmol Dye 1/g of tissue
- nmol Dye 1/g of tissue, Liver [3, 7]: 17.0 nmol Dye 1/g of tissue
- nmol Dye 1/g of tissue, Tumor [3, 7]: 32.0 nmol Dye 1/g of tissue
- nmol Dye 1/g of tissue, Heart [3, 8]: 1.1 nmol Dye 1/g of tissue
- nmol Dye 1/g of tissue, Liver [3, 8]: 3.3 nmol Dye 1/g of tissue
- nmol Dye 1/g of tissue, Brain [3, 9]: 4.7 nmol Dye 1/g of tissue
- nmol Dye 1/g of tissue, Heart [3, 9]: 1.3 nmol Dye 1/g of tissue
- nmol Dye 1/g of tissue, Liver [3, 9]: 13.2 nmol Dye 1/g of tissue
- passage of the blood-brain barrier ([3]; rat, arterial injection): appears to pass the blood-brain barrier
- concentrations of the dye in the tumor mass ([3]; short time periods following injection): reasonably high concentrations

SMILES: CC(C)(C)C1=CC(=CC=Cc2cc(C(C)(C)C)[se+]c(C(C)(C)C)c2)C=C(C(C)(C)C)[Se]1 [Dye 2]
- Absorption maximum λmax ([1]; H2O): 730 nm
- Quantum efficiency of singlet oxygen generation Φ(1O2) ([2]; air-saturated solution): 0.014

SMILES: CC(C)(C)C1=CC(=CC=Cc2cc(C(C)(C)C)[s+]c(C(C)(C)C)c2)C=C(C(C)(C)C)[Te]1 [Dye 3]
- Absorption maximum λmax ([1]; H2O): 745 nm
- Quantum efficiency of singlet oxygen generation Φ(1O2) ([2]; air-saturated solution): 0.07

SMILES: CC(C)(C)C1=CC(=CC=Cc2cc(C(C)(C)C)[o+]c(C(C)(C)C)c2)C=C(C(C)(C)C)[Te]1.[O-][Cl+3]([O-])([O-])[O-] [Dye 5, 2,6-Di-t-butyl-4-[3-(2,6-di-t-butyl-4H-telluropyran-4-ylidene)-1-propen-1-yl]pyrylium perchlorate]
- nmol Dye 1/g of tissue, Heart ([4]; 2 h): 1.3 nmol Dye 1/g of tissue
- nmol Dye 1/g of tissue, Kidney ([4]; 2 h): ≤ 0.5 nmol Dye 1/g of tissue
- nmol Dye 1/g of tissue, Liver ([4]; 2 h): 4.1 nmol Dye 1/g of tissue
- nmol Dye 1/g of tissue, Tumor ([4]; 2 h): 5.5 nmol Dye 1/g of tissue
- nmol Dye 1/g of tissue, Heart ([4]; 4 h): ≤ 0.5 nmol Dye 1/g of tissue
- nmol Dye 1/g of tissue, Kidney ([4]; 4 h): ≤ 0.5 nmol Dye 1/g of tissue
- nmol Dye 1/g of tissue, Liver ([4]; 4 h): 3.8 nmol Dye 1/g of tissue
- nmol Dye 1/g of tissue, Tumor ([4]; 4 h): 3.3 nmol Dye 1/g of tissue

SMILES: CC(C=Cc1cc(C(C)(C)C)[te+]c(C(C)(C)C)c1)=C1C=C(C(C)(C)C)[Se]C(C(C)(C)C)=C1 [Dye 6]
- Absorption maximum λmax ([1]; CH2Cl2): 803 nm
- Quantum efficiency of singlet oxygen generation Φ(1O2) ([2]; air-saturated solution): 0.01

SMILES: CC(=CC(C)=C1C=C(C(C)(C)C)[Se]C(C(C)(C)C)=C1)c1cc(C(C)(C)C)[se+]c(C(C)(C)C)c1 [Dye 7]
- Absorption maximum λmax ([1]; MeOH): 790 nm
- Quantum efficiency of singlet oxygen generation Φ(1O2) ([2]; air-saturated solution): 0.005

SMILES: CC(C)(C)C1=CC(=CC=Cc2cc(C(C)(C)C)[s+]c(C(C)(C)C)c2)C=C(C(C)(C)C)[Se]1 [Dye 8]
- Absorption maximum λmax ([1]; H2O): 700 nm
- Quantum efficiency of singlet oxygen generation Φ(1O2) ([2]; air-saturated solution): 0.008

SMILES: C(=C1C=C(c2ccccc2)[Te]C(c2ccccc2)=C1)c1cc(-c2ccccc2)[te+]c(-c2ccccc2)c1 [Dye 10]
- Absorption maximum λmax ([1]; MeOH): 760 nm
- Quantum efficiency of singlet oxygen generation Φ(1O2) ([2]; air-saturated solution): 0.08

SMILES: CC(=C1C=C(c2ccccc2)[Te]C(c2ccccc2)=C1)c1cc(-c2ccccc2)[te+]c(-c2ccccc2)c1 [Dye 11]
- Absorption maximum λmax ([1]; CH2Cl2): 843 nm
- Quantum efficiency of singlet oxygen generation Φ(1O2) ([2]; air-saturated solution): 0.01

SMILES: CC(=C1C=C(C(C)(C)C)[Te]C(C(C)(C)C)=C1)c1cc(C(C)(C)C)[te+]c(C(C)(C)C)c1 [Dye 13]
- Absorption maximum λmax ([1]; H2O): 790 nm
- Quantum efficiency of singlet oxygen generation Φ(1O2) ([2]; air-saturated solution): 0.005

SMILES: CC(C)(C)C1=CC(=C(C#N)C=Cc2cc(C(C)(C)C)[te+]c(C(C)(C)C)c2)C=C(C(C)(C)C)[Te]1 [Dye 15]
- Absorption maximum λmax ([1]; MeOH): 790 nm
- Quantum efficiency of singlet oxygen generation Φ(1O2) ([2]; air-saturated solution): 0.08

SMILES: CC(C)(C)C1=CC(=Cc2cc(CCCCO)[te+]c(CCCCO)c2)C=C(C(C)(C)C)[Se]1 [Dye 18]
- Absorption maximum λmax ([1]; MeOH): 690 nm
- Quantum efficiency of singlet oxygen generation Φ(1O2) ([2]; estimated): ≥ 0.005
